# Results published in patent US9625444B2, “Artificial immune system: methods of use” (Sanofi Pasteur VaxDesign Corporation, priority 2004, dated 2017).
# What was measured:
# [1] = system: human monocytes; experiment: rapid chemokine testing system (lateral motility / chemotaxis of cells); type: cell-based
# Experimental: The BioAssembly Tool (BAT) has been modified for use in observations of the lateral motility of cells in experiments on chemotaxis. The described setup enables rapid screening of chemokines and cell matrices (typically, one experiment can take about half to one hour).
# Three chemokines, fMLP-FITC; […], and MIP-3β, were tested with human monocytes. […] MIP-3β was found ineffective (as expected for immature monocytes); MIP-3α was found effective, despite negative information and expectations. […] Thus, fibrin matrices should be used preferably in cases when cell retention is required, and collagen should be used to make cell-permeable barriers. This latter observation may be important when considering the use of ETCs for wound healing procedures. This system can be used to further refine and optimize chemokine doses using various microparticle strategies and formulations, temporal release characteristics, and scaffold characteristics (e.g., geometry, porosity, material) on cell migration.
# The rapid chemokine testing system can be used to examine saturation of cell receptors by chemokines. When a chemokine reaches its saturating concentration, cells become insensitive to the signal and stop their locomotion. In most cases, chemotaxis occurs through gradients of chemokines.
# [2] = system: monocytes; experiment: monocyte attraction to implanted extracellular matrix scaffold; type: in vivo; details: mouse
# [3] = system: human monocytes and dendritic cells; experiment: in vitro chemotaxis towards chemoattractant-releasing PLGA microspheres; type: cell-based; details: PLGA microspheres releasing the chemoattractant
# Description: FIG. 7A is a schematic representation of the experimental design. […] FIGS. 7C and 7D show the movement of monocyte-derived DCs and monocytes, respectively, towards the vaccination site source well.
# PLGA (poly(lactide-co-glycolide)) microspheres provide steady controlled release of encapsulated chemokines. […] Synthetic inverse opal hydrogel scaffolds were synthesized that support T-cell migration and interaction with B cells (FIG. 8A), and support attachment and growth of high cell densities, which is an important feature in mimicking the microenvironment of the lymph node (FIG. 8B).
# [4] = system: human monocytes; details: known value used for comparison; cited from earlier work
compound,measurement,setting,value
"MIP-3β: macrophage inflammatory protein-3β, a 10 kDa chemoattractant chemokine",effectiveness of the chemokine,[1],ineffective
same,attraction of monocytes (immunohistochemical staining),[2],attracted
MIP-3α: chemokine (macrophage inflammatory protein-3) tested with human monocytes,effectiveness of the chemokine,[1],effective
N-formyl-methionyl-leucyl-phenylalanine-fluorescein isothiocyanate [fMLP FITC],saturation level,[1],~40 nM
"CSCC[C@H](NC=O)C(=O)N[C@@H](CC(C)C)C(=O)N[C@@H](Cc1ccccc1)C(=O)O [fMLP, N-formyl-methionyl-leucyl-phenylalanine]",movement of cells towards releasing microspheres,[3],move towards microspheres
same,saturation level known,[4],~30 nM
